Counter-ions that a name gives are not always drawn.
Legend:
GCase [1] = target: T1, GCase (Homo sapiens, UniProt P04062); experiment: GCase activity enhancement (EC50, Emax) of Table 2B; format: cell-based; conditions: for GCase activity enhancement compared to reference compound IFG-tartrate: same maximum level as IFG-tartrate at much lower concentration
T1 sequence (P04062 40-536): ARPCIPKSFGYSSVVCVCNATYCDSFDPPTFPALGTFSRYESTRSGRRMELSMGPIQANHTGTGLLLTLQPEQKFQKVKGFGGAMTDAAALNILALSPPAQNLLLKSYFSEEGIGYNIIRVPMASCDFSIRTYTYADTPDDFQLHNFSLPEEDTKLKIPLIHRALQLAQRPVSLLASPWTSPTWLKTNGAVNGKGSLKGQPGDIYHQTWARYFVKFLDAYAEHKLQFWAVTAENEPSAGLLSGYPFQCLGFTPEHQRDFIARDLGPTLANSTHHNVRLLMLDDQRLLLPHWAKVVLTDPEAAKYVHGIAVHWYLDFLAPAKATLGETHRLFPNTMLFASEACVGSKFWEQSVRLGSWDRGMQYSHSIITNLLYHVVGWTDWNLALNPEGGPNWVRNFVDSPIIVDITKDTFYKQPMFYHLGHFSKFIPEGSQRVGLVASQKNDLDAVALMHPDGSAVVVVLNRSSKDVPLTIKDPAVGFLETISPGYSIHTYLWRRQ

[2] = Blood brain barrier penetration: plasma and brain levels after single oral dose; format: in vivo; conditions: mice, single 30 mg/kg (free base equivalent) p.o.
Method: For this purpose, 8-week old wild-type male mice (C57BL/6) were administered a single 30 mg/kg (free base equivalent) p.o. dose of reference or test compound by gavage (n=3 mice per time point). Dosing solutions were prepared in water. After dosing, mice were euthanized with CO2 at the following time points: 0-, 0.5-, 1-, and 4-hour post-dose. […] Similarly, brains were collected from each mouse. Plasma was derived by spinning whole blood at 2,700×g for 10 minutes at 4° C. followed by storage on dry ice. Whole brains were washed in cold PBS to remove contaminating blood, blotted dry, flash frozen on dry ice, and ultimately stored at −80° C. until analysis. To prepare brain samples for analysis, 50-100 mg of tissue was homogenized in […] of water/mg tissue. Samples were then clarified by centrifugation. Next, 25 μl of the brain homogenate supernatant or 25 μl of plasma were combined with 25 μl of acetonitrile:water (95/5). […] Samples were again clarified by centrifugation and 75 μl of the supernatant was combined with 75 μl of acetonitrile. Samples were then analyzed for compound levels by LC-MS/MS at PPD Inc. (3230 Deming Way, Middleton, Wis. 53562). In brief, a Thermo Betasil, Silica-100, 50×3 mm, 5μ column equilibrated with a mixture of mobile phase consisting of 5 mM ammonium formate and 0.05% formic acid in (A) 95:5 acetonitrile:water or (B) 70:20:10 methanol:water:acetonitrile was employed. Between 20 and 30 μl sample was injected for analysis. For calculating drug concentrations, raw data for plasma (ng/mL) and brain (ng/g) was converted to nM using the molecular weight of respective compounds and assuming 1 g of tissue is equivalent to 1 mL volume. Concentration as a function of time was plotted in GraphPad Prism version 4.02.

GCase [3] = target: T2, GCase (Mus musculus, UniProt P17439); experiment: GCase enhancement in brain and spleen after oral dosing over 2 weeks; format: in vivo, mice; set-up: from tissue; host or cells: brain and spleen of wild-type C57BL/6 mice; conditions: for GCase increase (fold): 9 doses, 24-hour washout; for GCase enhancement in brain and spleen: mice, p.o.
T2 sequence (P17439 20-515): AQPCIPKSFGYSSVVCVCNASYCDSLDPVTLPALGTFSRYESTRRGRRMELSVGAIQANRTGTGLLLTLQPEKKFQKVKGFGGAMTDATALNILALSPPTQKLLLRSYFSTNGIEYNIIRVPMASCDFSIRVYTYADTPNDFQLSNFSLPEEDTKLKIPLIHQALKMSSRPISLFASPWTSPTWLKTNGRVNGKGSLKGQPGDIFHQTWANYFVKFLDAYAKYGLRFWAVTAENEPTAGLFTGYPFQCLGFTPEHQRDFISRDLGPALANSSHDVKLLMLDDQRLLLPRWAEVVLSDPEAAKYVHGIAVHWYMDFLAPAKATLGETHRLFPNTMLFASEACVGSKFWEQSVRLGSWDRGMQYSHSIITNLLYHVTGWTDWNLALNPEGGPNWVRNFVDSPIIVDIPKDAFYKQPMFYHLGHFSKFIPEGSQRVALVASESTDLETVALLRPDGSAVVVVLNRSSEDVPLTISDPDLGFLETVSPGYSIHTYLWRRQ
Method: The ability of orally administered test compounds ((3R,4R,5S)-5-(difluoromethyl)piperidine-3,4-diol, (3R,4R,5S)-5-(1-fluoroethyl)piperidine-3,4-diol, (3R,4R,5S)-5-((R)-1-fluoropropyl)piperidine-3,4-diol hydrochloride, or (3R,4R,5S)-5-benzylpiperidine-3,4-diol) to elevate GCase levels was assessed in mice. For this purpose, 8-week old wild-type male mice (C57BL/6) were administered a single p.o. (gavage) dose of a compound of the present invention (i.e., (3R,4R,5S)-5-(difluoromethyl)piperidine-3,4-diol, (3R,4R,5S)-5-(1-fluoroethyl)piperidine-3,4-diol, (3R,4R,5S)-5-((R)-1-fluoropropyl)piperidine-3,4-diol hydrochloride, or (3R,4R,5S)-5-benzylpiperidine-3,4-diol). The dosing solutions were prepared in water. Compounds were administered over 2 weeks as follows: week 1, Mon-Fri (On), Sat-Sun (Off); week 2, Mon-Thu (On); necropsy on Friday. Thus, a total of 9 doses (dosing solutions prepared fresh every day) were given to each mouse, with a 24-hour washout between the last dose and necropsy.
Plasma was collected by spinning blood at 2700 g for 10 minutes at 4° C. Liver, spleen, lung, and brain tissues were removed, washed in cold PBS, blotted dry, flash frozen on dry ice, and stored at −80° C. until analysis. GCase levels were measured by homogenizing approximately 50 mg tissue in 500 μL McIlvane (MI) buffer (100 mM sodium citrate, 200 mM sodium phosphate dibasic, 0.25% sodium taurocholate, and 0.1% Triton X-100, pH 5.2) at pH 5.2 for 3-5 seconds on ice with a micro homogenizer. Homogenates were then incubated at room temperature without and with 2.5 mM conduritol-B-epoxide (CBE) for 30 min. Finally, 3.7 mM 4-methylumbeliferryl-β-glucoside (4-MUG) substrate was added and incubated at 37° C. for 60 min. […] Fluorescence was measured on a plate reader for 1 sec/well using 355 nm excitation and 460 nm emission. Total protein was determined in lysates using the MicroBCA kit according to the manufacturer's instructions. A 4-methylumbelliferone (4-MU) standard curve ranging from 1.0 nM to 50 μM was run in parallel for conversion of raw fluorescence data to absolute GCase activity (in the presence and absence of CBE) and expressed as nanomoles of 4-MU released per milligram of protein per hour (nmol/mg protein/hr). GCase levels and protein levels were calculated using Microsoft Excel (Redmond, Wash.) and GraphPad Prism version 4.02.

[4] = brain, 10 mg/kg FBE p.o., (1) BLQ <[…], (2) BLQ <2.2 nmol/kg
[5] = spleen, 10 mg/kg FBE p.o., (1) BLQ <6.8 nmol/kg, (2) BLQ <7.9 nmol/kg
[6] = spleen, 10 mg/kg FBE p.o., in µM
[7] = spleen, 100 mg/kg FBE p.o., in µM

| Emax (GCase [1]) [%] | levels detected in brain compared to IFG-tartrate [2] | Compound concentration in GCase assay (μM) (GCase [3]; brain, 10 mg/kg FBE p.o.) | GCase increase (fold) (GCase [3]; brain, 10 mg/kg FBE p.o.) | GCase increase (fold) (GCase [3]; brain, 100 mg/kg FBE p.o.) | GCase increase (fold) (GCase [3]; spleen, 10 mg/kg FBE p.o.) | GCase increase (fold) (GCase [3]; spleen, 100 mg/kg FBE p.o.) | Compound concentration in GCase assay (GCase [3]; spleen, 10 mg/kg FBE p.o.) | Structure (SMILES) | GCase activity enhancement compared to reference compound IFG-tartrate (GCase [1]) | blood brain barrier crossing compared to IFG-tartrate [2] | Compound concentration in tissue 2.2 nmol/kg (GCase [3]; [4]) | Compound concentration in tissue 2.2 nmol/kg (GCase [3]; brain, 100 mg/kg FBE p.o.) [nmol/kg] | Compound concentration in tissue (GCase [3]; [5]) [nmol/kg] | Compound concentration in GCase assay (GCase [3]; [6]) | Compound concentration in tissue (GCase [3]; spleen, 100 mg/kg FBE p.o.) [nmol/kg] | Compound concentration in GCase assay (GCase [3]; [7]) | GCase enhancement in brain and spleen (GCase [3]) |
| --- | --- | --- | --- | --- | --- | --- | --- | --- | --- | --- | --- | --- | --- | --- | --- | --- | --- |
| 84 ± 4.1 | higher levels | BLQ | 0.9 | 1.1 | 0.7 | 0.7 | – | CC[C@@H](F)[C@H]1CNC[C@@H](O)[C@@H]1O.Cl [(3R,4R,5S)-5-((R)-1-fluoropropyl)-piperidine-3,4-diol hydrochloride] | concentration-dependent increase in GCase activity | crossed the blood brain barrier more readily as compared to IFG-tartrate | BLQ(2) | 38 | 21 | 0.0001 | 60 | 0.0002 | – |
| 98 ± 4.5 | higher levels | – | 1.2 | 1.4 | 1.0 | 1.2 | – | O[C@@H]1[C@@H](Cc2ccccc2)CNC[C@H]1O [(3R,4R,5S)-5-benzyl-piperidine-3,4-diol] | concentration-dependent increase in GCase activity | crossed the blood brain barrier more readily as compared to IFG-tartrate | – | – | – | – | – | – | significant GCase enhancement in brain and spleen |
| – | higher levels | – | 1.5 | – | – | – | BLQ | CC(F)[C@H]1CNC[C@@H](O)[C@@H]1O (single isomer, unassigned) | concentration-dependent increase in GCase activity | crossed the blood brain barrier more readily as compared to IFG-tartrate | – | – | – | – | – | – | significant GCase enhancement in brain and spleen |

| Structure (SMILES) | Emax (GCase [1]) [%] | levels detected in brain compared to IFG-tartrate [2] | Compound concentration in GCase assay (μM) (GCase [3]; brain, 10 mg/kg FBE p.o.) | GCase increase (fold) (GCase [3]; brain, 10 mg/kg FBE p.o.) | GCase increase (fold) (GCase [3]; brain, 100 mg/kg FBE p.o.) | GCase increase (fold) (GCase [3]; spleen, 10 mg/kg FBE p.o.) | GCase increase (fold) (GCase [3]; spleen, 100 mg/kg FBE p.o.) | Compound concentration in GCase assay (GCase [3]; spleen, 10 mg/kg FBE p.o.) | GCase activity enhancement compared to reference compound IFG-tartrate (GCase [1]) | blood brain barrier crossing compared to IFG-tartrate [2] | Compound concentration in tissue 2.2 nmol/kg (GCase [3]; [4]) | Compound concentration in tissue 2.2 nmol/kg (GCase [3]; brain, 100 mg/kg FBE p.o.) [nmol/kg] | Compound concentration in tissue (GCase [3]; [5]) [nmol/kg] | Compound concentration in GCase assay (GCase [3]; [6]) | Compound concentration in tissue (GCase [3]; spleen, 100 mg/kg FBE p.o.) [nmol/kg] | Compound concentration in GCase assay (GCase [3]; [7]) | GCase enhancement in brain and spleen (GCase [3]) |
| --- | --- | --- | --- | --- | --- | --- | --- | --- | --- | --- | --- | --- | --- | --- | --- | --- | --- |
| O[C@H]1[C@H](O)CNC[C@@H]1C(F)F [Compound 6, (3R,4R,5S)-5-(Difluoromethyl)piperdine 3,4-diol Hydrochloride] | 106 ± 8.7 | higher levels | – | – | – | – | – | – | concentration-dependent increase in GCase activity | crossed the blood brain barrier more readily as compared to IFG-tartrate | 55 nmol/kg | 301 | 100 | 0.0003 | 435 | 0.0015 | significant GCase enhancement in brain and spleen |

From patent publication US10035766B2, “Compositions for preventing and/or treating lysosomal storage disorders” (Amicus Therapeutics, Inc., priority 2009, dated 2018)
